Structures can show the parent of a compound that is named as a salt.
Legend:
carrageenin oedema = assay: Carrageenin oedema test (Winter and Risley's technique), anti-inflammatory activity; type: in vivo, rats (Wistar strain, female); details: rats, inhibition of oedema compared with control batch
Procedure: The anti-inflammatory activity was measured by the carrageenin oedema test according to Winter and Risley's technique (Proc. Soc. Exp. Biol. 111, 544, 1962). The test was carried out on batches of 10 Wistar strain female rats weighing 180 g, which receives the products in an amount of 1/10 of the LD50. The anti-inflammatory activity corresponds to the inhibition of the oedema in the treated batch compared with the control batch.

[1] = test system: painful syndrome produced in mice by phenylbenzoquinone; assay: Analgesic test of Siegmund, Cadmus and Lu (phenylbenzoquinone-induced painful syndrome, stretching); type: in vivo, mice (Swiss strain); details: oral; for Analgesic activity at 1/10 of LD50: dose 1/10 of LD50, 30 minutes before phenylbenzoquinone; for Analgesic activity at 1/40 of LD50: dose 1/40 of LD50, 30 minutes before phenylbenzoquinone
Procedure: They were in particular subjected to the analgesic test of Siegmund, Cadmus and Lu (Proc. Soc. Exp. Biol. Med. 95, 729, 1957) according to which a characteristic painful syndrome is produced in mice by injecting phenylbenzoquinone.
The animals used are Swiss strain mice, weighing 20±2 grams.
The animals are distributed in random batches of 10, but are tested individually. Each test comprises at least two batches.
a control batch that receives the solvent and phenylbenzoquinone
a batch treated with the product being investigated.
The investigated products are administered orally, in an amount of 1/10 or 1/40 of the LD50, 30 minutes before the injection of the irritant agent. Each mouse then receives 0.25 ml of a 0.02% phenylbenzoquinone solution intraperitoneally.
The pain syndrome produced by the injection of phenylbenzoquinone causes the animals to stretch their stomach and rear paws, and at the crisis point of the reaction the animal's flanks are very contracted. 5 minutes after the injection of the irritant, the stretching is counted for a period of 10 minutes.
The average number of stretchings is calculated for each batch. The activity of the product under investigations is determined by comparison with the average number of stretchings in the treated animals (N) and the average number of stretchings in the control animals (N'). [formula]
The statistical significance of the result thus obtained is evaluated by Fisher's non-parametric test.

mice = assay: Oral toxicity in mice (Miller and Tainter's method); type: in vivo
Procedure: (§1) The toxicity of the compounds according to the invention administered orally was also determined in mice by Miller and Tainter's method.

[2] = as above; type: in vivo; details: mouse, in vivo, po, read-out: LD50 toxicity orally
Procedure: as §1

Row | Compound | Anti-inflammatory activity at 1/10 of LD50 (carrageenin oedema) | Analgesic activity at 1/10 of LD50 [1] | Analgesic activity at 1/40 of LD50 [1] | LD50 toxicity orally (mice) | LD50 [2]
1 | Cc1ccc(C(=O)c2cccc(OC(C)C(=O)O)c2)cc1 (stereo not shown) [Lysine salt of Ex. 8] | 30% | 87% | 36% | 2000 mg/kg | –
2 | CC(Oc1cccc(C(=O)c2ccccc2)c1)C(=O)O (stereo not shown) [Example 1] | 17% | 86% | 84% | – | 1000 mg/kg
3 | Cc1c(OC(C)C(=O)O)cccc1C(=O)c1ccccc1 (stereo not shown) [Example 2] | 33% | 73% | – | – | 750 mg/kg
4 | Cc1ccc(C(=O)c2cccc(OC(C)C(=O)O)c2)c(C)c1 (stereo not shown) [Example 11] | 41% | 97% | 31% | – | 2000 mg/kg
5 | Cc1c(OC(C)C(=O)O)cccc1C(=O)c1ccc(Cl)cc1 (stereo not shown) [Lysine salt of Ex. 6] | 57% | 80% | 89% | 1000 mg/kg | –
6 | Cc1c(OC(C)C(=O)O)cccc1C(=O)c1ccc(Cl)cc1 (stereo not shown) [Example 6] | 46% | 94% | 83% | – | 750 mg/kg
7 | Cc1ccc(C(=O)c2cccc(OC(C)C(=O)O)c2C)cc1 (stereo not shown) [Example 10] | 32% | 92% | – | – | 600 mg/kg
8 | CC(Oc1cccc(C(=O)c2ccc(Cl)cc2Cl)c1)C(=O)O (stereo not shown) [Example 3] | 18% | 98.5% | 71% | – | 1500 mg/kg
9 | Cc1ccc(C(=O)c2ccc(Cl)cc2)cc1OC(C)C(=O)O (stereo not shown) [Example 7] | 21% | 81% | – | – | 500 mg/kg
10 | Cc1c(OC(C)C(=O)O)cccc1C(=O)c1ccc(Cl)cc1Cl (stereo not shown) [Example 9] | – | 64% | – | – | 750 mg/kg
11 | CC(Oc1cccc(C(=O)c2ccc(Br)cc2)c1)C(=O)O (stereo not shown) [Example 4] | 45% | 84% | 58% | – | 1000 mg/kg
12 | CCOC(=O)C(C)Oc1cccc(C(=O)c2ccc(Cl)cc2)c1C (stereo not shown) [Ethyl ester of Example 6] | 62% | 77% | 73% | – | 1500 mg/kg
13 | CC(Oc1cccc(C(=O)c2ccccc2)c1)C(=O)O (stereo not shown) [Lysine salt of Ex. 1] | 50% | 97% | 86% | 2000 mg/kg | –
14 | CC(Oc1cccc(C(=O)c2ccc(F)cc2)c1)C(=O)O (stereo not shown) [Example 5] | 26% | 89% | 63% | – | 1500 mg/kg
15 | Cc1ccc(C(=O)c2cccc(OC(C)C(=O)O)c2)cc1 (stereo not shown) [Example 8] | 40% | 84% | 86% | – | 1500 mg/kg
